Results reported in patent US20250147039A1, “Compounds for complexation of rare earth elements and/or s-, p-, d- block metals, their coordination compounds, peptide conjugates, method of their preparation and use thereof” (USTAV ORGANICKE CHEMIE A BIOCHEMIE AV CR V.V.I., priority 2021, published 2025).

How the values were obtained:
[1] = Formation of 1,5-cz-[Ln(Lig)] from Lig and Ln^III ions (metal dependent click-zip), MOPS/NaOH buffer pH 7.0, analytical HPLC (Charts 1, 2); settings: MOPS/NaOH buffer pH 7.0
[2] = Formation of 1,5-cz-[M(Lig)] from Lig and M^III ions (metal dependent click-zip) (Charts 4, 5); type: physicochemical; settings: MOPS/NaOH buffer pH 7.0; for conversion to 1,5-cz-[M(Lig)], Sc^III / conversion to 1,5-cz-[M(Lig)], Y^III: TD728, TD827 in 50% i-PrOH; for conversion to 1,5-cz-[M(Lig)], Y^III: TD714 sum of two diastereoisomers

- conversion to 1,5-cz-[Ln(Lig)] with hydrolysed group in the side chain, Ce^III ([1]; after 1 week at 80° C.): 8%
- conversion to 1,5-cz-[Ln(Lig)], Ce^III ([1]; after 1 week at 80° C.): 0%
- conversion to 1,5-cz-[Ln(Lig)] with hydrolysed group in the side chain, Ce^III ([1]; after 1 hour at 80° C.): 0%
- conversion to 1,5-cz-[Ln(Lig)], Ce^III ([1]; after 1 hour at 80° C.): 0%
- conversion to 1,5-cz-[Ln(Lig)] with hydrolysed group in the side chain, Dy^III ([1]; after 1 week at 80° C.): 82%
- conversion to 1,5-cz-[Ln(Lig)], Dy^III ([1]; after 1 week at 80° C.): 0%
- conversion to 1,5-cz-[Ln(Lig)] with hydrolysed group in the side chain, Dy^III ([1]; after 1 hour at 80° C.): 0%
- conversion to 1,5-cz-[Ln(Lig)], Dy^III ([1]; after 1 hour at 80° C.): 2%
- conversion to 1,5-cz-[Ln(Lig)] with hydrolysed group in the side chain, Er^III ([1]; after 1 week at 80° C.): 92%
- conversion to 1,5-cz-[Ln(Lig)], Er^III ([1]; after 1 week at 80° C.): 1%
- conversion to 1,5-cz-[Ln(Lig)] with hydrolysed group in the side chain, Er^III ([1]; after 1 hour at 80° C.): 2%
- conversion to 1,5-cz-[Ln(Lig)], Er^III ([1]; after 1 hour at 80° C.): 4%
- conversion to 1,5-cz-[Ln(Lig)] with hydrolysed group in the side chain, Eu^III ([1]; after 1 week at 80° C.): 49%
- conversion to 1,5-cz-[Ln(Lig)], Eu^III ([1]; after 1 week at 80° C.): 1%
- conversion to 1,5-cz-[Ln(Lig)] with hydrolysed group in the side chain, Eu^III ([1]; after 1 hour at 80° C.): 0%
- conversion to 1,5-cz-[Ln(Lig)], Eu^III ([1]; after 1 hour at 80° C.): 1%
- conversion to 1,5-cz-[Ln(Lig)] with hydrolysed group in the side chain, Gd^III ([1]; after 1 week at 80° C.): 57%
- conversion to 1,5-cz-[Ln(Lig)], Gd^III ([1]; after 1 week at 80° C.): 2%
- conversion to 1,5-cz-[Ln(Lig)] with hydrolysed group in the side chain, Gd^III ([1]; after 1 hour at 80° C.): 0%
- conversion to 1,5-cz-[Ln(Lig)], Gd^III ([1]; after 1 hour at 80° C.): 1%
- conversion to 1,5-cz-[Ln(Lig)] with hydrolysed group in the side chain, Ho^III ([1]; after 1 week at 80° C.): 87%
- conversion to 1,5-cz-[Ln(Lig)], Ho^III ([1]; after 1 week at 80° C.): 1%
- conversion to 1,5-cz-[Ln(Lig)] with hydrolysed group in the side chain, Ho^III ([1]; after 1 hour at 80° C.): 1%
- conversion to 1,5-cz-[Ln(Lig)], Ho^III ([1]; after 1 hour at 80° C.): 3%
- conversion to 1,5-cz-[Ln(Lig)] with hydrolysed group in the side chain, La^III ([1]; after 1 week at 80° C.): 11%
- conversion to 1,5-cz-[Ln(Lig)], La^III ([1]; after 1 week at 80° C.): 0%
- conversion to 1,5-cz-[Ln(Lig)] with hydrolysed group in the side chain, La^III ([1]; after 1 hour at 80° C.): 0%
- conversion to 1,5-cz-[Ln(Lig)], La^III ([1]; after 1 hour at 80° C.): 0%
- conversion to 1,5-cz-[Ln(Lig)] with hydrolysed group in the side chain, Lu^III ([1]; after 1 week at 80° C.): 98%
- conversion to 1,5-cz-[Ln(Lig)], Lu^III ([1]; after 1 week at 80° C.): 1%
- conversion to 1,5-cz-[Ln(Lig)] with hydrolysed group in the side chain, Lu^III ([1]; after 1 hour at 80° C.): 9%
- conversion to 1,5-cz-[Ln(Lig)], Lu^III ([1]; after 1 hour at 80° C.): 8%
- conversion to 1,5-cz-[Ln(Lig)] with hydrolysed group in the side chain, Nd^III ([1]; after 1 week at 80° C.): 23%
- conversion to 1,5-cz-[Ln(Lig)], Nd^III ([1]; after 1 week at 80° C.): 0%
- conversion to 1,5-cz-[Ln(Lig)] with hydrolysed group in the side chain, Nd^III ([1]; after 1 hour at 80° C.): 0%
- conversion to 1,5-cz-[Ln(Lig)], Nd^III ([1]; after 1 hour at 80° C.): 1%
- conversion to 1,5-cz-[Ln(Lig)] with hydrolysed group in the side chain, Pr^III ([1]; after 1 week at 80° C.): 21%
- conversion to 1,5-cz-[Ln(Lig)], Pr^III ([1]; after 1 week at 80° C.): 0%
- conversion to 1,5-cz-[Ln(Lig)] with hydrolysed group in the side chain, Pr^III ([1]; after 1 hour at 80° C.): 0%
- conversion to 1,5-cz-[Ln(Lig)], Pr^III ([1]; after 1 hour at 80° C.): 0%
- conversion to 1,5-cz-[Ln(Lig)] with hydrolysed group in the side chain, Sm^III ([1]; after 1 week at 80° C.): 44%
- conversion to 1,5-cz-[Ln(Lig)], Sm^III ([1]; after 1 week at 80° C.): 1%
- conversion to 1,5-cz-[Ln(Lig)] with hydrolysed group in the side chain, Sm^III ([1]; after 1 hour at 80° C.): 0%
- conversion to 1,5-cz-[Ln(Lig)], Sm^III ([1]; after 1 hour at 80° C.): 1%
- conversion to 1,5-cz-[Ln(Lig)] with hydrolysed group in the side chain, Tb^III ([1]; after 1 week at 80° C.): 74%
- conversion to 1,5-cz-[Ln(Lig)], Tb^III ([1]; after 1 week at 80° C.): 1%
- conversion to 1,5-cz-[Ln(Lig)] with hydrolysed group in the side chain, Tb^III ([1]; after 1 hour at 80° C.): 0%
- conversion to 1,5-cz-[Ln(Lig)], Tb^III ([1]; after 1 hour at 80° C.): 2%
- conversion to 1,5-cz-[Ln(Lig)] with hydrolysed group in the side chain, Tm^III ([1]; after 1 week at 80° C.): 94%
- conversion to 1,5-cz-[Ln(Lig)], Tm^III ([1]; after 1 week at 80° C.): 1%
- conversion to 1,5-cz-[Ln(Lig)] with hydrolysed group in the side chain, Tm^III ([1]; after 1 hour at 80° C.): 3%
- conversion to 1,5-cz-[Ln(Lig)], Tm^III ([1]; after 1 hour at 80° C.): 5%
- conversion to 1,5-cz-[Ln(Lig)] with hydrolysed group in the side chain, Yb^III ([1]; after 1 week at 80° C.): 97%
- conversion to 1,5-cz-[Ln(Lig)], Yb^III ([1]; after 1 week at 80° C.): 1%
- conversion to 1,5-cz-[Ln(Lig)] with hydrolysed group in the side chain, Yb^III ([1]; after 1 hour at 80° C.): 5%
- conversion to 1,5-cz-[Ln(Lig)], Yb^III ([1]; after 1 hour at 80° C.): 7%
- conversion to 1,5-cz-[Ln(Lig)] with hydrolysed group in the side chain, Sc^III ([2]; 1 week at 80° C.): 60%
- conversion to 1,5-cz-[Ln(Lig)] with hydrolysed group in the side chain, Y^III ([2]; 1 week at 80° C.): 87%
- conversion to 1,5-cz-[M(Lig)], Sc^III ([2]; 1 week at 80° C.): 0%
- conversion to 1,5-cz-[M(Lig)], Y^III ([2]; 1 week at 80° C.): 0%
- conversion to 1,5-cz-[Ln(Lig)] with hydrolysed group in the side chain, Sc^III ([2]; 1 hour at 80° C.): 0%
- conversion to 1,5-cz-[Ln(Lig)] with hydrolysed group in the side chain, Y^III ([2]; 1 hour at 80° C.): 1%
- conversion to 1,5-cz-[M(Lig)], Sc^III ([2]; 1 hour at 80° C.): 0%
- conversion to 1,5-cz-[M(Lig)], Y^III ([2]; 1 hour at 80° C.): 2%
Structure (SMILES): CC(C)(C#Cc1cccc(CN2CCN(CC(=O)O)CCN(Cc3cccc(CN=[N+]=[N-])n3)CCN(CC(=O)O)CC2)n1)NC(=O)OC(C)(C)C [TD1105]
